Test results from PMC2702281, “HLA-A*0201-restricted CTL epitope of a novel osteosarcoma antigen, papillomavirus binding factor” (Journal of Translational Medicine, 2009).

Columns and labels:
HLA-A*0201 molecules = HLA-A*0201 molecules (Homo sapiens, UniProt P04439, D140Y/D185E/D98H/E176V/E277Q/G131W/G231S/I119V/I121R/I166T/I218V/L300P/L318F/N151K/N90K/P208A/P217A/Q86G/Q94H/R138H/R169H/T345S); experiment: T2 cell surface HLA class I stabilization assay; assay type: cell-based; conditions: for HLA-peptide binding affinity (%MFI increase ± SD): peptide 50 μg/ml, T2 cells, anti-HLA-A2 mAb BB7.2 staining, triplicate, mean ± SD
[1] = tested on: PBF A2.2-specific CD8+ T cells; experiment: LD/MLPC followed by tetramer-based frequency analysis; assay type: cell-based, human
Source text: Prior to frequency analysis and cytotoxicity assays, PBMC of patients were subjected to mixed lymphocyte peptide culture under limiting dilution conditions (LD/MLPC) according to the method described by Karanikas et al. with some modifications. LD/MLPC aims to seed at most one CTL precursor cell per well and induces proliferation of the precursor cell by subsequent mixed lymphocyte peptide culture. For this purpose, the appropriate number of PBMC and CD8^+ cells per well is considered to be 1 × 10^5–2 × 10^5 [17, 24].
PBMCs were used as a source of responder cells in the initial five subjects (Patients 1 and 2 and three healthy donors) and CD8^+ cells were used in the following three patients (Patients 3–5) [see Additional file 2].
PBMC obtained from peripheral blood samples (50 ml) of Patients 1 and 2 and three healthy donors were suspended in AIM-V (Invitrogen Corp., Carlsbad, CA) supplemented with 1% human serum (HS). These cells were incubated for 60 min at room temperature with peptide PBF A2.2 (50 μg/ml). Peptide-pulsed PBMC were seeded at 2 × 10^5 cells/200 μl/well into round-bottom 96-microwell plates in AIM-V with 10%HS, IL-2 (20 U/ml; a kind gift from Takeda Chemical Industries, Ltd., Osaka Japan) and IL-7 (10 ng/ml; R&D Systems, Minneapolis, Minnesota, USA), and incubated. On day 7, half of the medium was replaced with fresh AIM-V containing IL-2, IL-7 and the same peptides. The cell cultures were maintained by adding fresh AIM-V containing IL-2. On days 14–21, they were subjected to tetramer-based frequency analysis.
PBMC obtained from Patients 3–5 were separated into CD8^+ cells and CD8^- cells using magnetic anti-CD8 microbeads (Miltenyi Biotec, Gladbach, Germany). CD8^- cells were pulsed with the PBF A2.2 peptide for 60 min. Half of the CD8^- cells were cryopreserved at -80°C for the second stimulation. CD8^+ cells (1.0–2.1 × 10^5/well) and irradiated PBF A2.2 peptide-pulsed CD8^- cells (1–5 × 10^5/well) were cocultured in 48-well cell culture plates in 500 μl of AIM-V with 10%HS, IL-2 and IL-7. On day 7, the second stimulation was performed by adding irradiated peptide-pulsed CD8^- cells to each culture well in 500 μl of AIM-V with 10%HS, IL-2 and IL-7. On days 13–23, they were subjected to tetramer-based frequency analysis.
An FITC-conjugated HLA-A*0201/HIV tetramer (here termed the control tetramer) and a PE-conjugated HLA-A*0201/PBF A2.2 tetramer (A2/PBF A2.2 tetramer) were constructed by Medical & Biological Laboratories Co., Ltd. (Tokyo, Japan). PBMCs from patients were stimulated with the PBF A2.2 peptide by using the LD/MLPC procedure as described above. From each microwell containing 200 μl of the microculture pool, 100 μl was transferred to a V-bottom microwell and washed. To the spin-down pellets, the control tetramer and A2/PBF A2.2 tetramer (10 nM in 25 μl of PBS) were added in combination and incubated for 15 min at room temperature. Then a PE-Cy5-conjugated anti-CD8 antibody (eBioscience, San Diego, California, USA) was added (dilution of 1:30 in 25 μl of PBS containing the control tetramer and A2/PBF A2.2 tetramer) and incubated for another 15 min. The cells were washed in PBS twice, fixed with 0.5% formaldehyde, and analyzed by flow cytometry using FACScan and CellQuest software (Becton Dickinson, San Jose, California, USA). CD8^+ living cells were gated and the cells labeled with the A2/PBF A2.2 tetramer were referred to as tetramer-positive cells. Tetramer-positive cells in each well are theoretically derived from a single CTL precursor, regardless of the number (percentage) of tetramer-positive cells. Accordingly, the number of tetramer-positive wells represents the number of CTL precursors. The frequency of anti-PBF A2.2 CTLs was evaluated using the following calculation: (number of tetramer-positive wells)/[(total number of tested wells) × (initial number of CD8+ cells per well)].

[2] = three tetramer-positive patients with osteosarcoma

HLA-peptide binding affinity (%MFI increase ± SD) (HLA-A*0201 molecules) | Sequence | also measured
74.5 ± 6.6 %MFI increase | ALPSFQIPV [Peptide A2.2] | %MFI increase in peptide titration experiments (HLA-A*0201 molecules; HLA class I stabilization assay at indicated concentrations, Fig. 1): dose-dependent increases of %MFI; %MFI increase compared among the peptides (HLA-A*0201 molecules; HLA class I stabilization assay, ten PBF-derived peptides): highest %MFI increase among the peptides; Cytotoxicity of five CTL clones (1B1, 1D7, 1E1, 1F4, 1F7) against peptide-pulsed T2 cells (T2 cells): All five CTL clones lysed PBF A2.2 peptide-pulsed T2 cells; Frequency of CTL precursors calculated as 2/5.4 × 10^6 ([1]; Patient 4, 36 wells at 1.5 × 10^5 CD8+ cells per well, tetramer analysis on day 21, Fig. 2): 3.7 × 10^-7; Patients in whom A2/PBF A2.2 tetramer-positive T cells were detected ([1]; five HLA-A*0201+ patients with PBF-positive osteosarcoma): three of the five patients; Frequencies of the PBF A2.2-specific CD8+ T cells, average ([1]; three healthy donors): 2 × 10^-7; Frequencies of the PBF A2.2-specific CD8+ T cells, range ([1]; three healthy donors): 1 × 10^-7 to 3 × 10^-7; Frequencies of the PBF A2.2-specific CD8+ T cells, average [1, 2]: 2 × 10^-6; Frequencies of the PBF A2.2-specific CD8+ T cells, range [1, 2]: 2 × 10^-7 to 5 × 10^-6
8.2 ± 19.1 %MFI increase | FETDPDPFL [Peptide A2.7] | –
22.5 ± 9.6 %MFI increase | FETDPDPFLL [Peptide A2.6] | –
2.7 ± 9.4 %MFI increase | FQPGQKVYV [Peptide A2.3] | –
1.8 ± 9.9 %MFI increase | GLVEQHSWM [Peptide A2.4] | –
4.4 ± 9.9 %MFI increase | KVLRSIVGI [Peptide A2.10] | –
10.5 ± 12.0 %MFI increase | MMAAMVLTSL [Peptide A2.5] | –
-1.5 ± 2.5 %MFI increase | SMTGLPLSAL [Peptide A2.8] | –
38.8 ± 15.5 %MFI increase | WLLEQKLQV [Peptide A2.1] | –
10.2 ± 8.2 %MFI increase | YQALPSFQI [Peptide A2.9] | –
